According to patent publication US5565433A, “Sulfated β-glycolipid derivatives as cell adhesion inhibitors” (Bristol-Myers Squibb Company, priority 1996, dated 1996):

Molecular target: T1, P-selectin (Homo sapiens, UniProt P16109)
T1 construct: consists of the human lectin domain, the EGF domain, and two complement repeats of the human selectins; made in house
Assay: P-Selectin Adhesion Receptor Binding: cell-free ELISA, inhibition of P-selectin binding to immobilized sulfatides
Details: immobilized sulfatide, pH 8.0
Source text: 1. P-Selectin Adhesion Receptor Binding
P-selectin (GMP140, granule membrane protein-140, PADGEM, or CD62) is a calcium-dependent transmembrane protein found in alpha granules of endothelial cells and platelets. It is an inducible selectin produced on activated endothelium and platelets which recognize alpha(2-3)sialylated and alpha(1-3)fucosylated lactosaminoglycans which include the sequence, Lewis x (Zhou et al., J. Cell. Biol., (1991) 115 (2): 557-564) and sulfatides (3-sulfated galactosyl ceramides, Aruffo, et al., Cell (1991) 67: 35-44). P-selectin may be responsible for the initial adhesion events between endothelium and neutrophils as evidenced by leukocyte rolling induced by P-selectin in flow cells (Lawrence, M., and T. Springer, Cell (1991) 65: 859-873).
Based on the availability of soluble forms of P-selectin prepared as described by Aruffo, A., et al., Cell, 67, 35-44 (1991), a binding ELISA based assay modified from Foxall, et al., J., Cell Biol., 117, 895-902 (1992) was developed to measure inhibitors of P-selectin binding to immobilized sulfatides. Such inhibitors were tested in the assay described below.
0.1 ml of sulfatide (SIGMA) or lysosulfatide (SIGMA) each at 1 μg/ml in MeOH were added to the wells of a 96-well ELISA plate (ProBind, Falcon) and allowed to dry overnight at room temperature. The next day the antigen coated plates were blocked for 1.5 hours at room temperature with 5% BSA (ICN) in buffer containing 20mM Hepes and 0.15 M NaCl, pH 8.0. Wild type P-selectin and mutants thereof were first mixed with HRP-conjugated goat anti-human IgG (Fisher Scientific), serially diluted and then incubated for 30 minutes at 37° C. in buffer containing 20 mM Hepes, 0.15 M NaCl, 1% BSA and 0.8 mM CaCl2, pH 8.0 prior to addition to the BSA blocked plates. Following the 30 minute preincubation, the fusion protein-HRP conjugate immunocomplexes were incubated on the blocked antigen coated plates for 45 minutes at 37° C. in the presence or absence of the test compounds and then washed to remove any unbound proteins. Bound complexes were detected by addition of substrate buffer (95 mM NaOAc.3H2 O, 5 mM citric acid monohydrate, 1.4 mM urea/H2O2) containing 3, 3', 5, 5' Tetramethylbenzidine (SIGMA). Reactions were stopped by the addition of 3N sulfuric acid and the absorbance read on an ELISA reader at dual wavelengths 450 and 630 nm. The efficacy of these compounds was compared to that of sulfatide (positive control) or to lysosulfatide (negative control). The data is obtained as percent inhibition of specific binding [formula] and a plot of dose vs. percent inhibition of Rg binding is generated in which IC50 (μM) is calculated and reported as cell free data in Table 1.

T1 sequence (P16109 with tags, fused parts or gaps limits assumed): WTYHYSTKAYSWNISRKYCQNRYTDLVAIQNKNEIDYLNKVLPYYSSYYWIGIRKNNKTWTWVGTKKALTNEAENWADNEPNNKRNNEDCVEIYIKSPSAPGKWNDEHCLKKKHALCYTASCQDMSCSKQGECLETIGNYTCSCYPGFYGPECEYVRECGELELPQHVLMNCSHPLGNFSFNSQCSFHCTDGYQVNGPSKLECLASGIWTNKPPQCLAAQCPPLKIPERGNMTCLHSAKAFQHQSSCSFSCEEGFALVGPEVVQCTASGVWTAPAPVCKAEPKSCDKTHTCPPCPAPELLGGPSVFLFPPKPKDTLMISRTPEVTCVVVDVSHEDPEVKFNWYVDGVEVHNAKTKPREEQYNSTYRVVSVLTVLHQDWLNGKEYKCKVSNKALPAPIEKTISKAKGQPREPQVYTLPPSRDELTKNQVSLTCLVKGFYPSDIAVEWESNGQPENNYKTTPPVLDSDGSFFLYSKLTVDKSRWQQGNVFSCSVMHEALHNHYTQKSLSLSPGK

Row | IC50 | SMILES
1 | 1700 nM | CCCCCCCCCCCCC/C=C/[C@@H](O)[C@H](CO[C@@H]1O[C@H](COS(=O)(=O)O)[C@H](OS(=O)(=O)O)[C@H](O)[C@H]1O)NC(=O)CCCCCCCCCCCCCCC [Example 2, (2S,3R,4E)-3-Hydroxy-2-hexadecanoylamino-1-[4,6-di-O-(sodiumoxysulfonyl)-β-D-galactopyranosyloxy]-4-octadecene]
2 | 1000 nM | CCCCCCCC/C=C\CCCCCCCCCCCCCC(=O)N[C@@H](CO[C@@H]1O[C@H](COS(=O)(=O)O)[C@H](OC(=O)c2ccccc2)[C@H](OC(=O)c2ccccc2)[C@H]1OS(=O)(=O)O)[C@@H](/C=C/CCCCCCCCCCCCC)OC(=O)c1ccccc1 [Example 7, (2S,3R,4E)-3-Benzoyloxy-1-[3,4-di-O-benzoyl-2,6-di-O-(sodiumoxysulfonyl)-β-D-galactopyranosyloxy]-2-(cis-15-tetracosenoylamino)-4-octadecene]
